According to patent US20220016080A1, “COMPOUNDS THAT SELECTIVELY AND EFFECTIVELY INHIBIT HAKAI-MEDIATED UBIQUITINATION, AS ANTI-CANCER DRUGS” (FUNDACIÓN PROFESOR NOVOA SANTOS, priority 2018, published 2022):

Columns and labels:
Format in all cases: cell-based
[1] = target: T1, E3 ubiquitin-ligase Hakai (Mus musculus, UniProt Q9JIY2); test: Hakai-dependent ubiquitination assay in 293T cells transfected with Flag-Hakai, v-Src and HA-ubiquitin; conditions: 293T cells transfected with Src, treated 36 h, DMSO as control
T1 construct: expressed in transfected cells; host or cells: HEK293T (293) cells, co-transfected with v-Src and HA-ubiquitin, and in A3 also with myc-E-cadherin
T1 sequence (Q9JIY2 1-491): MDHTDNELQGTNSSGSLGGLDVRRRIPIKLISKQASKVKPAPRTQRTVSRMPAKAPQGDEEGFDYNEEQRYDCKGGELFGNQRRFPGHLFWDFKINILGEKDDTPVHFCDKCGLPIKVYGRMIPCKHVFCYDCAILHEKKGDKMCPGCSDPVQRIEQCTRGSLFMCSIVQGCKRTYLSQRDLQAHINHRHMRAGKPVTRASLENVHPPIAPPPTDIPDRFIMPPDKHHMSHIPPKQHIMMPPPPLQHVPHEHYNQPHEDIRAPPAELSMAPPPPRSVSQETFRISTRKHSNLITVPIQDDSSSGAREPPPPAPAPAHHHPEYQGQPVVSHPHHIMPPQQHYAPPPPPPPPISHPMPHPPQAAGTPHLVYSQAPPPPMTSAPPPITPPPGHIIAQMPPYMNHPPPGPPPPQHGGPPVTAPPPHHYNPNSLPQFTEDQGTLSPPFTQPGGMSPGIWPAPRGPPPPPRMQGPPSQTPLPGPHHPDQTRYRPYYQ
Protocol: For ubiquitination assays, 750.000 HEK293T cells were seeded in 6-well cell culture plates and after 24 h were transfected with 0.25 μg Src, 0.75 μg Flag-Hakai, and 0.5 μg HA-ubiquitin with Lipofectamin 2000 (Invitrogen, UK). Six hours after transfection cells were treated with indicated concentrations of Hakin-1, Hakin-5 or the rest of the analogues tested for 36 h. Whole cell extracts were obtained in lysis buffer (20 mM Tris-HCl pH 7.5, 150 mM NaCl and 1% Triton X-100) containing 10 μg/ml leupeptin, 10 μg/ml aprotinin and 1 mM phenylmethanesulphonyl fluoride (PMSF), supplemented with 10 mM N-ethylmaleimide. Cells were harvested and subjected to western blotting using anti-HA antibody to detect ubiquitination.

[2] = tested on: HT-29 colon tumour cell line; test: MTT cell viability assay, HT29; conditions: 72 h, analogues at 50-500 μM
Protocol: (§1) For cytotoxicity assays, 1×10^4 cells were seeded per well into a 96-well plate. After 24 h cells were treated with the indicated inhibitors for 72 h and a MTT colorimetric cell viability assay was performed following manufacturer's instructions (Sigma Aldrich, St Louis, Mo.). Absorbance was measured at 570 and 630 nm using a Multiskan Plus Reader (Nanoquant Infinite M200 Tecan Trading AG, Switzerland). Dose-response curves were designed with Graph Pad Prism Software and the half-maximal inhibitory concentration (IC50) values were calculated. Represented data are the mean±SEM of at least three independent experiments with six replicates per condition.

[3] = tested on: normal epithelial MDCK cell line; test: MTT cell viability assay, MDCK; conditions: normal epithelial MDCK compared to Hakai-MDCK; 72 h
Protocol: as §1

[4] = tested on: Hakai-MDCK cell lines (clone 4 and clone 11); test: MTT cell viability assay, Hakai-MDCK; conditions: both clones of Hakai-MDCK compared to MDCK; 72 h
Protocol: as §1

[5] = tested on: Hakai-transformed MDCK cells; test: Phase-contrast cell phenotype, Hakai-MDCK
Protocol: MDCK, HEK293T, HepG2, MCF7 and ACHN cells were cultured in Dulbecco's Modified Eagles Medium (DMEM). MDCK stably expressing Hakai cells (Hakai-MDCK) were previously reported and were growth in DMEM with G418 (800 μg/ml). […] LoVo and PC-3 cells were cultured in F-12K Medium (Kaighn's Modification of Ham's F-12 Medium) and HT-29 cells in McCoy's 5a Medium Modified. 5637 cells were cultured in RPMI medium. All culture media were supplemented with 1% penicillin/streptomycin and 10% of heat-inactivated fetal bovine serum (FBS) at 37° C. in a humidified incubator with 5% CO2. Cells were monthly tested for mycoplasma contamination and used only for 1-3 months after defrosted. LoVo and HT29 cells were authenticated with the StemElite ID system (Promega). For phase-contrast images, culture cells were photographed with a Nikon Eclipse-TI microscope.

[6] = tested on: HT-29 cells; test: Western blotting of EMT markers, HT-29; conditions: 48 h
Protocol: (§2) For western blot analysis, cells were treated with the indicated inhibitors for 48 h and the whole cell extracts were obtained as described previously. Twenty micrograms of lysates were resolved on a 10% polyacrilamide SDS-PAGE followed by western blot analysis performed as previously described. For immunofluorescence assays cells were grown for 24 h on glass coverslips and treated with the indicated inhibitors for 48 h. Cells were fixed with 4% PFA for 15 min, permeabilized with 0.5% […] and incubated with E-cadherin antibody for 2 h. Coverslips were incubated with fluorescein-tagged secondary antibody (Dakopatts, Sweden) for […]. Finally coverslips were mounted with ProLong Gold antifade reagent (LifeTech, UK) and images were taken in epifluorescence microscope (Olympus) using 40× objective.

[7] = tested on: HT-29 cells; test: Immunofluorescence of E-cadherin, HT-29; conditions: 48 h
Protocol: as §2

[8] = tested on: HT29 cells; test: BrdU proliferation assay, HT29; conditions: 48 h
Protocol: (§3) For BrdU assays, 1×10^4 of indicated cells were plated per well into a 96-well plate. After 24 h, cells were treated with the indicated inhibitors for 48 h. Three independent experiments were plated with six replicates per each condition. Cells were treated with […] BrdU for 2 h. BrdU incorporation into newly synthesized DNA was measured using a cell proliferation colorimetric immunoassay kit according to the manufacturer's instructions (Roche, Switzerland). Results are expressed as mean±S.D. Results are represented as percentage of positive cells (mean±S.D) of three independent experiments.

[9] = tested on: LoVo cells; test: BrdU proliferation assay, LoVo; conditions: 48 h
Protocol: as §3

Structure (SMILES)	ubiquitination mediated by Hakai (western blotting, anti-HA) [1]	cytotoxicity effect (cell viability, MTT) [2]	sensitivity to treatment (cell viability, MTT) [3]	sensitivity to treatment (cell viability, MTT) [4]	mesenchymal phenotype (phase contrast) [5]	E-cadherin levels (western blotting) [6]	E-cadherin levels at cell-cell contacts (immunofluorescence) [7]	cell proliferation (BrdU) [8]	cell proliferation (BrdU) [9]
O=C(O)c1ccc(-n2nnnc2SCC(=O)c2ccc(Cl)s2)cc1 [Hakin A-23]	inhibitory effect of Hakai activity	important inhibitory response							
CC(/C=C/C(=O)O)=C\CC(O)/C(C)=C/CCC(C)C(C)O (stereo not shown) [Hakin-5, (2E,4E,8E)-7,13-Dihydroxy-4,8,12-trimethyl-2,4,8-tetradecatrienoic acid, reference compound]	no effect was detected		more resistant	more sensitive	induction of an epithelial phenotype	no effect	no effect	no effect was seen	no effect was seen
